Measurements taken from EP1282414B1, “FELBAMATE DERIVED COMPOUNDS FOR TREATING NEUROPATHIC PAIN” (University of Virginia Patent Foundation, priority 2000, dated 2001).

Columns and labels:
pentylenetetrazol = assay: Subcutaneous Metrazol seizure test (scMET), mice i.p.; type: in vivo, Carworth Farms No. 1 mice; conditions: for ScMET, number of animals protected / total number of animals tested: mice i.p.
Excerpt: (§1) The fluoro derivatives synthesized were submitted to the National Institute of Neurological Disorders and Stroke (NINDS) for evaluation in a standard panel of assays. Two convulsant tests (MES and scMET), and a toxicity screen (rotorod in mice, positional sense and gait in rats) were employed for evaluating the compounds activity as neuroprotecting agents. These testing procedures are described in detail in Molecular and Cellular Targets for Anti-epileptic Drugs, eds. G. Avanzini, G. Regesta, P. Tanganelli, M. Avoli, 1997, John Libbey & Company Ltd, pp 191-198. The felbamate derivatives were evaluated for anticonvulsant activity following intraperitoneal (i.p.) administration in mice and oral administration in rats.
This is a model that primarily identifies compounds that raise seizure threshold. With some minor exceptions, the pharmacological profile of the scMET seizure model is consistent with the human condition. The scMET test utilizes a dose of pentylenetetrazol (85 mg/kg in Carworth Farms No. 1 mice and 70 mg/kg in Sprague-Dawley rats) that induces clonic seizures lasting for a period of at least five seconds in 97 % (CD97) of animals tested. At the anticipated time of testing the convulsant is administered subcutaneously. The test compound is administered intraperitoneally in mice and orally in rats. Animals are observed over a 30 minute period. Absence of clonic spasms in the observed time period indicates a compound's ability to abolish the effect of pentylenetetrazol on seizure threshold.
(§2) For the MES and scMET tests the data is presented in the form of the number of animals protected by the administered compound / total number of animals tested. […] Qualitative data was obtained for fluoro felbamate 12 (Tables 1 and 2A), fluoro monocarbamate felbamate 13 (Tables 1 and 2B), and fluorodioxo 16 (Tables 1 and 2C) and for cyclic felbamate 21 (Tables 5 and 6B) and cyclic monocarbamate 22 (Tables 5 and 6A). More extensive quantitative data was also obtained for fluoro felbamate 12 in mice (Table 3) and rats (Table 4).

mice = assay: Minimal neurotoxicity (TOX), rotorod test, mice i.p.; type: in vivo; conditions: for TOX, number of animals exhibiting toxic effects / total number of animals tested: mice i.p.
Excerpt: as §1, with “G. Avanzini, G. Regesta, P. Tanganelli, M. Avoli, 1997, John Libbey & Company Ltd, pp 191-198.” left out, “rats. […]” for “rats.”

[1] = as above; type: in vivo; conditions: in vivo, ip; mouse, I.P.
Excerpt: as §1, with “G. Avanzini, G. Regesta, P. Tanganelli, M. Avoli, 1997, John Libbey & Company Ltd, pp 191-198.” left out, “rats. […]” for “rats.”

[2] = test system: MES-induced seizure spread; assay: Maximal Electroshock Seizure (MES) test, mice i.p.; type: in vivo; conditions: for MES, number of animals protected / total number of animals tested: mice i.p.
Excerpt: as §1
The MES test is a model for generalized tonic-clonic seizures and is used to identify compounds which prevent seizure spread. The behavioral and electrographic seizures generated in this model are consistent with the human disorder. In the MES test, an electrical stimulus of 0.2 s in duration (50 mA in mice and 150 mA in rat at 60Hz) was delivered via corneal electrodes primed with an electrolyte solution containing an anesthetic agent. […] Rats were tested at time intervals between 0.25 and 4 hours following a standard oral dose of 30 mg/kg. Abolition of the hindlimb tonic extensor component indicates the test compound's ability to inhibit MES-induced seizure spread.
as §2

rats = assay: Minimal neurotoxicity (TOX), positional sense and gait and stance tests, rats p.o.; type: in vivo; conditions: for TOX, number of animals exhibiting toxic effects / total number of animals tested: rat p.o., 30 mg/kg
Excerpt: as §1, with “G. Avanzini, G. Regesta, P. Tanganelli, M. Avoli, 1997, John Libbey & Company Ltd, pp 191-198.” left out
(§3) Rats are examined for behavioral toxicity by the positional sense test and a gait and stance test. […] In the gait and stance test, neurotoxicity is indicated by a circular or zigzag gait, ataxia, abnormal spread of the legs, abnormal posture, tremor hyperactivity, lack of exploratory behavior, somnolence, stupor or catalepsy. […]

[3] = as above; type: in vivo; conditions: in vivo, po; rat
Excerpt: as §1, with “G. Avanzini, G. Regesta, P. Tanganelli, M. Avoli, 1997, John Libbey & Company Ltd, pp 191-198.” left out
as §3

seizures = assay: NINDS standard panel of assays (MES, scMET, toxicity screen), overall; type: in vivo; conditions: relative to felbamate
Excerpt: as §1

[4] = test system: MES-induced seizure spread; assay: Maximal Electroshock Seizure (MES) test, rats p.o.; type: in vivo, rat; conditions: for MES, number of animals protected / total number of animals tested: rat p.o., 30 mg/kg
Excerpt: as §1
The MES test is a model for generalized tonic-clonic seizures and is used to identify compounds which prevent seizure spread. The behavioral and electrographic seizures generated in this model are consistent with the human disorder. In the MES test, an electrical stimulus of 0.2 s in duration (50 mA in mice and 150 mA in rat at 60Hz) was delivered via corneal electrodes primed with an electrolyte solution containing an anesthetic agent. Mice were tested at 30 minutes and 4 hours following doses of 30, 100 and 300 mg/kg of test compound. Rats were tested at time intervals between 0.25 and 4 hours following a standard oral dose of 30 mg/kg. Abolition of the hindlimb tonic extensor component indicates the test compound's ability to inhibit MES-induced seizure spread.
as §2

NC(=O)OCC(F)(COC(N)=O)c1ccccc1 [fluoro felbamate, 2-Fluoro-2-phenyl-1,3-propanediol dicarbamate]
ED50 (pentylenetetrazol; Mus musculus, ip, read-out: ScMET ED50): > 160 mg/kg | ScMET, number of animals protected / total number of animals tested (pentylenetetrazol; 30 mg/kg, 0.5h): 0/1 | ScMET, number of animals protected / total number of animals tested (pentylenetetrazol; 30 mg/kg, 4.0h): 0/1 | ScMET, number of animals protected / total number of animals tested (pentylenetetrazol; 100 mg/kg, 0.5h): 0/1 | ScMET, number of animals protected / total number of animals tested (pentylenetetrazol; 100 mg/kg, 4.0h): 0/1 | ScMET, number of animals protected / total number of animals tested (pentylenetetrazol; 300 mg/kg, 0.5h): 0/1 | ScMET, number of animals protected / total number of animals tested (pentylenetetrazol; 300 mg/kg, 4.0h): 0/1 | TOX, number of animals exhibiting toxic effects / total number of animals tested (mice; 3 mg/kg, 0.5h): 0/4 | TOX, number of animals exhibiting toxic effects / total number of animals tested (mice; 3 mg/kg, 4.0h): 0/4 | TOX, number of animals exhibiting toxic effects / total number of animals tested (mice; 10 mg/kg, 0.5h): 0/4 | TOX, number of animals exhibiting toxic effects / total number of animals tested (mice; 10 mg/kg, 4.0h): 0/4 | TOX, number of animals exhibiting toxic effects / total number of animals tested (mice; 30 mg/kg, 0.5h): 1/4 | TOX, number of animals exhibiting toxic effects / total number of animals tested (mice; 30 mg/kg, 4.0h): 0/2 | TOX, number of animals exhibiting toxic effects / total number of animals tested (mice; 100 mg/kg, 0.5h): 4/8 | TOX, number of animals exhibiting toxic effects / total number of animals tested (mice; 100 mg/kg, 4.0h): 0/4 | TOX, number of animals exhibiting toxic effects / total number of animals tested (mice; 300 mg/kg, 0.5h): 4/4 | TOX, number of animals exhibiting toxic effects / total number of animals tested (mice; 300 mg/kg, 4.0h): 2/2 | safety ratio (mice; mice, i.p., toxicity relative to MES ED50): at least five | ED50 [1]: 115 mg/kg | ED50 ([2]; Mus musculus, ip, read-out: MES ED50, mouse, I.P.): ~20 mg/kg | MES, number of animals protected / total number of animals tested ([2]; 3 mg/kg, 0.5h): 0/4 | MES, number of animals protected / total number of animals tested ([2]; 3 mg/kg, 4.0h): 0/1 | MES, number of animals protected / total number of animals tested ([2]; 10 mg/kg, 0.5h): 0/4 | MES, number of animals protected / total number of animals tested ([2]; 10 mg/kg, 4.0h): 1/4 | MES, number of animals protected / total number of animals tested ([2]; 30 mg/kg, 0.5h): 1/1 | MES, number of animals protected / total number of animals tested ([2]; 30 mg/kg, 4.0h): 1/1 | MES, number of animals protected / total number of animals tested ([2]; 100 mg/kg, 0.5h): 3/3 | MES, number of animals protected / total number of animals tested ([2]; 100 mg/kg, 4.0h): 3/3 | MES, number of animals protected / total number of animals tested ([2]; 300 mg/kg, 0.5h): 1/1 | MES, number of animals protected / total number of animals tested ([2]; 300 mg/kg, 4.0h): 1/1 | MES ED50 ([2]; mouse, I.P.): 19.96 mg/kg | TOX, number of animals exhibiting toxic effects / total number of animals tested (rats; 0.25h): 0/4 | TOX, number of animals exhibiting toxic effects / total number of animals tested (rats; 0.5h): 0/4 | TOX, number of animals exhibiting toxic effects / total number of animals tested (rats; 1.0h): 0/4 | TOX, number of animals exhibiting toxic effects / total number of animals tested (rats; 2.0h): 0/4 | TOX, number of animals exhibiting toxic effects / total number of animals tested (rats; 4.0h): 1/4 | no toxicity at doses up to (rats; rats, oral administration): up to 500 mg/kg | ED50 [3]: > 500 mg/kg | times more active than felbamate (seizures): 5-10 times | ED50 ([4]; Rattus norvegicus, po, read-out: MES ED50, rat, p.o.): ~3 mg/kg | MES, number of animals protected / total number of animals tested ([4]; 0.25h): 2/4 | MES, number of animals protected / total number of animals tested ([4]; 0.5h): 4/4 | MES, number of animals protected / total number of animals tested ([4]; 1.0h): 4/4 | MES, number of animals protected / total number of animals tested ([4]; 2.0h): 4/4 | MES, number of animals protected / total number of animals tested ([4]; 4.0h): 4/4
